Assay results as given in PMC12475274, “Harnessing indole scaffolds to identify small-molecule IRE1α inhibitors modulating XBP1 mRNA splicing” (Nature Communications, 2025).
“And” between values parts separate entries of the source, which are not always exact repeats. Equal values may be shown once. “Also recorded” adds a separate entry of the source. Read-outs that look alike come from different tables or passages of the source.

Assays:
[1] = target: T1, dephosphorylated IRE1α (547–977) (Homo sapiens, UniProt O75460); assay: FRET-based IRE1α RNase activity assay, dephosphorylated IRE1α; assay type: biochemical; conditions: for inhibition at 50 µM: read-out: IRE1α inhibition%
T1 construct: Human IRE1α kinase and RNase domain (residues 547–977) was subcloned into pLIB plasmid; His tag (with TEV cleavage site) (N, cleaved yes); made in house; host or cells: Sf9 insect cells, baculovirus (Bac-to-Bac)
T1 sequence (O75460 547-977): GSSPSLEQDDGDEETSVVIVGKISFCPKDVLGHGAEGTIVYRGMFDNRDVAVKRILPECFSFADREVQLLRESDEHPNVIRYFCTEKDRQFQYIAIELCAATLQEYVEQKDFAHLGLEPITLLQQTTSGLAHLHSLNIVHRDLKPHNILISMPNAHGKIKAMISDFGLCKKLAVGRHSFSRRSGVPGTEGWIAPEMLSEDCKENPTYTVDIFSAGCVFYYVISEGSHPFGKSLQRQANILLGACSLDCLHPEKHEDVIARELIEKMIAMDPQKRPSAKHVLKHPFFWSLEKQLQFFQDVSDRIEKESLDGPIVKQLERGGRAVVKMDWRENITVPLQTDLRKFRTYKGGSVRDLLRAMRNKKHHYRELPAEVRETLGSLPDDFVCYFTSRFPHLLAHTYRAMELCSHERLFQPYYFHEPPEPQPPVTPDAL
Method: (§1) Human IRE1α kinase and RNase domain (residues 547–977) was subcloned into pLIB plasmid with a His tag and TEV cleavage site, and expressed using Bac-to-Bac expression system. The primers used are listed in Supplementary Table S3. The protein purification was performed following established procedures. Briefly, Sf9 cells were infected with baculovirus and incubated at 27 °C 110 rpm for 72 h. The cells were collected by centrifugation at 4000 × g for 15 min and the cell pellet was resuspended in lysis buffer (50 mM HEPES pH 7.5, 300 mM NaCl, 10% glycerol, 1 mM MgCl2, 1 mM TCEP, 5 mM imidazole), then supplemented with 1:10,000 benzonase (Sigma, E1014), 1 tablet/25 mL […]™ Protease Inhibitor Cocktail tablets (Sigma, S8830) and 1 mM PMSF before lysed by sonication at 4 °C. […] The protein elution was incubated with TEV protease to remove His tag at 4 °C overnight. Then the sample was diluted 1:6 in buffer (50 mM HEPES pH 7.5, 1 mM TCEP, 5% glycerol) and loaded onto a 5 mL pre-packaged Q HP anion exchange column (Cytiva, HiTrap Q HP) pre-equilibrated with QA buffer (50 mM HEPES pH 7.5, 50 mM NaCl, 1 mM TCEP, 5% glycerol). The unphosphorylated and phosphorylated protein was separated by eluting the protein with a very shallow gradient with 0-30% buffer QB (50 mM HEPES pH 7.5, 1 M NaCl, 1 mM TCEP, 5% glycerol) over 80 CV. Different peaks were collected separately and verified by LC-MS. The fully phosphorylated fraction was collected and further purified by size exclusion chromatography (Cytiva, HiLoad 16/600 Superdex 200 pg,) with SEC buffer (25 mM HEPES pH 7.5, 250 mM NaCl, 1 mM TCEP, 10% glycerol) and fractioned as monomeric peak. The rest protein fraction from the Q HP anion exchange column was incubated with Lambda protein phosphatase (New England BioLabs, P0753S) overnight at 4 °C, the dephosphorylation was confirmed by LC-MS. The unphosphorylated protein was further purified by size exclusion chromatography with the SEC buffer described above. The purified phosphorylated (p-IRE1α) and dephosphorylated (IRE1α) protein aliquots were stored at −80 °C for future usage.
The dual-labeled RNA substrate with a FAM at 5’ and the BHQ-1 at 3’ containing the XBP1 sequence (5′FAM-[…]-3′BHQ1) was purchased from Integrated DNA Technologies (IDT). The FRET-based IRE1α RNase activity assay was carried out in reaction buffer containing 20 mM HEPES pH 7.5, 50 mM KOAc, 1 mM MgOAc2, 1 mM DTT, 0.05% v/v TritonX-100, at a total reaction volume of 20 μL in a 384-well black plate (4514, Corning). For unphosphorylated IRE1α (IRE1α), a final concentration of 40 nM IRE1α protein and 100 nM RNA substrate was used. For phosphorylated IRE1 (p-IRE1α), a final concentration of 4 nM p-IRE1α protein and 200 nM RNA substrate was used. The indicated compound and IRE1α protein were incubated for 30 min at room temperature before the substrate was added to the reaction. The plate was then kinetically read over one hour at room temperature using a TECAN Spark plate reader. The measurement was carried out using the fluorescence top reading mode at the excitation wavelength of 485 nm and the emission wavelength of 535 nm with a 10 nm excitation and emission bandwidth. The linear part of the reaction curve was adopted and fitted with sample linear regression to obtain the slope, and the slope was adopted to reflect the reaction rate. The inhibition % was calculated by using the equation: inhibition% = 100 × (slope of DMSO control – slope of the sample)/(slope of DMSO control – slope of blank control), DMSO control: DMSO with protein and RNA substrate; Blank control: DMSO with RNA substrate. The IC50 values were calculated using the concentration-response model in GraphPad Prism 9. […]

[2] = target: T2, phosphorylated IRE1α (p-IRE1α) (Homo sapiens, UniProt O75460); assay: FRET-based IRE1α RNase activity assay, phosphorylated IRE1α; assay type: biochemical; conditions: for inhibition at 50 µM: FRET assay at 50 μM, read-out: p-IRE1α inhibition%
T2 construct: Human IRE1α kinase and RNase domain (residues 547–977) was subcloned into pLIB plasmid; His tag (with TEV cleavage site) (N, cleaved yes); made in house; host or cells: Sf9 insect cells, baculovirus (Bac-to-Bac)
T2 sequence (O75460 547-977): as above
Method: as §1
The dual-labeled RNA substrate with a FAM at 5’ and the BHQ-1 at 3’ containing the XBP1 sequence (5′FAM-[…]-3′BHQ1) was purchased from Integrated DNA Technologies (IDT). The FRET-based IRE1α RNase activity assay was carried out in reaction buffer containing 20 mM HEPES pH 7.5, 50 mM KOAc, 1 mM MgOAc2, 1 mM DTT, 0.05% v/v TritonX-100, at a total reaction volume of 20 μL in a 384-well black plate (4514, Corning). For unphosphorylated IRE1α (IRE1α), a final concentration of 40 nM IRE1α protein and 100 nM RNA substrate was used. For phosphorylated IRE1 (p-IRE1α), a final concentration of 4 nM p-IRE1α protein and 200 nM RNA substrate was used. The indicated compound and IRE1α protein were incubated for 30 min at room temperature before the substrate was added to the reaction. The plate was then kinetically read over one hour at room temperature using a TECAN Spark plate reader. The measurement was carried out using the fluorescence top reading mode at the excitation wavelength of 485 nm and the emission wavelength of 535 nm with a 10 nm excitation and emission bandwidth. The linear part of the reaction curve was adopted and fitted with sample linear regression to obtain the slope, and the slope was adopted to reflect the reaction rate. The inhibition % was calculated by using the equation: inhibition% = 100 × (slope of DMSO control – slope of the sample)/(slope of DMSO control – slope of blank control), DMSO control: DMSO with protein and RNA substrate; Blank control: DMSO with RNA substrate. The IC50 values were calculated using the concentration-response model in GraphPad Prism 9.

[3] = FRET assay, RNase activity, mean (± SEM), read-out: IRE1α IC50
[4] = FRET assay, source data, unit from Fig. 3 / sheet Fig. 2b, read-out: IRE1a IC50, individual replicates (n1-n4)
[5] = FRET assay, RNase activity, mean (± SEM), read-out: p-IRE1α IC50
[6] = FRET assay, source data, unit from Fig. 3, read-out: p-IRE1a IC50, individual replicates (n1-n4)
[7] = FRET assay at 50 μM, mean (± SEM)
[8] = IRE1a, individual replicates (n1-n4), Supplementary Fig. 2b, 2c, read-out: IC50
[9] = IRE1a, mean, Supplementary Fig. 2b, 2c, read-out: IC50, mean
[10] = p-IRE1a, individual replicates (n1-n3), Supplementary Fig. 2b, 2c, read-out: IC50
[11] = p-IRE1a, mean, Supplementary Fig. 2b, 2c, read-out: IC50, mean

| IC50 [1, 3] | IC50 [1, 4] | IC50 [2, 5] | IC50 [2, 6] | Compound | also measured |
| --- | --- | --- | --- | --- | --- |
| 7410 nM | 6380 nM and 8450 nM | > 20000 nM | – | Cc1c(CCC(=O)O)c2cc(-c3ccc(O)cc3)ccc2n1C(=O)c1ccccc1 [IA163] | p-IRE1α IC50 ([2]; FRET assay, RNase activity, mean (± SEM)): IC₅₀ not reached |
| 760 nM | 589 nM and 971 nM and 1100 nM and 378 nM | 610 nM | 1080 nM and 593 nM and 159 nM | COc1ccc2c(c1)c(CCC(=O)O)c(C)n2C(=O)c1ccc2c(c1)C(=O)c1ccccc1C2=O [IA32] | – |
| 530 nM | 337 nM and 1040 nM and 203 nM | 820 nM | 1590 nM and 458 nM and 394 nM | COc1ccc2c(c1)c(CCC(=O)O)c(C)n2C(=O)c1ccccn1 [IA04] | – |
| 100 nM | 39.8 nM and 135 nM and 138 nM | 60 nM and 56.1 nM | 105 nM and 45 nM and 18 nM | COc1ccc2c(c1)c(CCC(=O)O)c(C)n2C(=O)c1cccc(C(F)(F)F)c1 [IA36] | – |

The remaining lines, values behind:

| Compound | IC50 [1, 3] | IC50 [1, 4] | IC50 [2, 5] | IC50 [2, 6] | also measured |
| --- | --- | --- | --- | --- | --- |
| Cc1c(CCC(=O)O)c2cc(Br)ccc2n1Cc1ccccc1 [IA164] | – | – | – | – | effect on IRE1α RNase activity in the FRET assay [1]: did not show activity; also recorded: complete loss of activity; inhibition at 5.55556 µM ([1]; IRE1a, 5.55556 μM): 11.3%; inhibition(%) ([1]; IRE1a, 5.55556 μM): 18.332% and 22.563% and 19.929%; effect on p-IRE1α RNase activity in the FRET assay [2]: did not show activity; inhibition(%) ([2]; p-IRE1a, 0.000847 μM): -3.310% and -10.444% and -6.973% and -11.312%; inhibition(%) ([2]; p-IRE1a, 0.00254 μM): -11.263% and -6.154% and -5.913% and -3.985%; inhibition(%) ([2]; p-IRE1a, 0.007621 μM): -3.888% and -1.575% and -3.262% and -6.925%; inhibition(%) ([2]; p-IRE1a, 0.022862 μM): -9.528% and -12.854% and -7.504% and -7.552%; inhibition(%) ([2]; p-IRE1a, 0.205761 μM): -14.011% and -13.481% and -9.046% and -6.299%; inhibition(%) ([2]; p-IRE1a, 0.617284 μM): -12.951% and -9.625% and -7.070% and -4.226%; inhibition(%) ([2]; p-IRE1a, 1.85185 μM): -7.504% and -4.708% and -6.877% and -5.527%; inhibition(%) ([2]; p-IRE1a, 5.55556 μM): -7.793% and -8.660% and -17.192% and -15.216% |
| COc1ccc2c(c1)c(CCC(=O)O)c(C)n2C(=O)c1ccc(-c2ccccc2)cc1 [IA75] | 860 nM | 1180 nM and 924 nM and 476 nM | 1150 nM | 1470 nM and 1150 nM and 817 nM | – |
| COC(=O)CCCc1c(C)n(C(=O)c2ccc(Cl)cc2)c2ccc(OC)cc12 [cms06] | – | – | – | – | inhibition at 50 µM [1, 7]: < 30%; inhibition at 50 µM ([2]; mean (± SEM)): < 30% |
| Cc1c(CCC(=O)O)c2cc(-c3cccc(C(=O)O)c3)ccc2n1C(=O)c1ccccc1 [IA149] | 1010 ± 270 nM | 895 nM and 824 nM and 1320 nM | 8810 nM and 8820 nM | 6800 nM and 11600 nM and 8050 nM | – |
| Cc1c(CCC(=O)O)c2cc(-c3cccc(N)c3)ccc2n1C(=O)c1ccccc1 [IA146] | 1210 ± 820 nM | 2150 nM and 810 nM and 672 nM | 6650 nM | 7280 nM and 8070 nM and 4590 nM | – |
| Cc1c(CCC(=O)O)c2cc(Cl)ccc2n1C(=O)c1cccs1 [IA60] | – | – | – | – | IC50 [1, 8]: 117 nM and 90.9 nM and 105 nM; IC50 [1, 9]: 100 nM; IC50 [2, 10]: 244 nM and 461 nM and 90.7 nM; IC50 [2, 11]: 270 nM |
| Cc1ccc2c(NS(=O)(=O)c3ccccc3Cl)cccc2c1Oc1ncccc1-c1ccnc(N[C@H]2CCCNC2)n1 [AMG18] | – | – | – | – | inhibition(%) ([1]; IRE1a, 5.55556 μM): 93.95% and 92.37% and 91.58% and 94.22%; inhibition(%) ([1]; IRE1a, 16.6667 μM): 92.87% and 92.05% and 91.66% and 92.11%; inhibition(%) ([1]; IRE1a, 50 μM): 89.29% and 89.80% and 92.49% and 93.01%; inhibition(%) ([2]; p-IRE1a, 5.55556 μM): 100.91% and 100.40% and 100.53% and 99.85%; inhibition(%) ([2]; p-IRE1a, 16.6667 μM): 99.21% and 99.54% and 99.79% and 99.45%; inhibition(%) ([2]; p-IRE1a, 50 μM): 99.53% and 98.55% and 99.75% and 99.47% |
| COc1ccc2c(c1)c(CCC(=O)O)c(C)n2C(=O)c1ccncc1 [IA93] | 180 nM | 141 nM and 211 nM and 201 nM | 340 nM | 198 nM and 428 nM and 403 nM | – |
| COc1ccc2c(c1)c(CCC(=O)O)c(C)n2C(=O)c1ccc(N(C)C)cc1 [IA70] | 320 nM | 473 nM and 234 nM and 244 nM | 730 nM | 505 nM and 1390 nM and 290 nM | – |
| COc1ccc2c(c1)c(CCC(=O)O)c(C)n2C(=O)C1CC1 [IA84] | 830 nM | 703 nM and 1250 nM and 531 nM | 1740 nM | 1510 nM and 2540 nM and 1170 nM | – |
| Cc1c(CCC(=O)O)c2ccccc2n1C(=O)c1cccs1 [IA42] | – | – | – | – | IC50 [1, 8]: 1960 nM and 3270 nM and 1050 nM; IC50 [1, 9]: 2090 nM; IC50 [2, 10]: 4450 nM and 1100 nM; IC50 [2, 11]: 2770 nM |
| COc1ccc2c(c1)c(CC(=O)O)c(C)n2C(=O)c1ccc(Cl)cc1 [Indomethacin, indomethacin, reference compound] | – | – | – | – | IRE1α inhibition% ([1]; FRET assay at 50 μM, mean (± SEM), 50 µM): < 30%; inhibition at 50 µM [1, 7]: ≤ 50%; inhibition at 50 µM ([2]; mean (± SEM)): < 30% |
| Cc1c(CCC(=O)O)c2cc(Cl)ccc2n1C(=O)c1cccc(C#N)c1 [IA63] | – | – | – | – | IC50 [1, 8]: 101 nM and 84.1 nM and 98.1 nM; IC50 [1, 9]: 90 nM; IC50 [2, 10]: 204 nM and 404 nM and 78.9 nM; IC50 [2, 11]: 230 nM |
